# Paper PMC12140300, “Development of Carbon‐11 Labeled Pyrimidine Derivatives as Novel Positron Emission Tomography (PET) Agents Enabling Brain Sigma‐1 Receptor Imaging” (Advanced Science, 2025)
# Read-outs that look alike come from different tables or passages of the source.
# Columns and labels:
# σ1R [1] = molecular target: T1, σ1R (Mus musculus, UniProt O55242); assay: Mice PET/CT imaging, baseline and self-blocking; type: in vivo, C57BL/6 mice
# T1 construct: The PET/CT studies in mice followed previously reported procedures; from tissue; host or cells: mouse brain in vivo (C57BL/6 wild type; 5xFAD transgenic)
# T1 sequence (O55242 whole entry): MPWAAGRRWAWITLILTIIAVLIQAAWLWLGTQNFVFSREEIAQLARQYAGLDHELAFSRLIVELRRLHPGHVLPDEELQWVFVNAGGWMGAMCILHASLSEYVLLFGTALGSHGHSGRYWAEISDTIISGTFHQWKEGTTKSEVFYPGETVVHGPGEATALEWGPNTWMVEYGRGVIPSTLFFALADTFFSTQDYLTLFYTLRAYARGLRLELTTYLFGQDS
# Experimental: PET/CT imaging studies of [^11C]CNY‐01 and [^11C]CNY‐02 were performed in male C57BL/6 mice. […] The whole‐brain time‐activity curve (TAC) of each tracer was generated. […] To investigate the binding specificity of [^11C]CNY‐01 and [^11C]CNY‐02, blocking studies were carried out by pre‐administrating mice with corresponding unlabeled ligands. […] This is due to the receptors in peripheral tissues being occupied by CNY‐01, leading to more radiotracer entering the brain and quickly washing out. […] Of note, the TACs show an increase in brain tracer uptake during the blocking studies, which could be attributed to peripheral blocking effects. To address this, we normalized the brain uptake data to the maximum radioactivity observed in the blood (input function). This normalization allowed us to account for peripheral changes in tracer availability.
# Figure 3 Mice PET/CT study with [^11C]CNY‐01 and [^11C]CNY‐02. A) Representative baseline and blocking (pre‐treated with 1.0 mg kg^−1 CNY‐01) PET/CT images of [^11C]CNY‐01 focused on the brain (summed 30‒60 min, n = 4). B) Whole brain time‐activity curves of [^11C]CNY‐01 for baseline and blocking mice. C) The normalized baseline and blocking TACs of [^11C]CNY‐01 (normalized the brain uptake curves with the maximum radioactivity in the blood at each time point). D) Representative baseline and blocking (pre‐treated with 1.0 mg kg^−1 CNY‐02) PET/CT images of [^11C]CNY‐02 focused on the brain (summed 30‒60 min, n = 4). E) Whole brain time‐activity curves of [^11C]CNY‐02 for baseline and blocking mice. F) The normalized baseline and blocking TACs of [^11C]CNY‐02 (normalized the brain uptake curves with the maximum radioactivity in the blood at each time point). Data were presented as mean ± standard error of the mean (SEM). Quantification of results was performed using Student's t‐test (***p < 0.0001).
# The PET/CT studies in mice followed previously reported procedures with minor modifications.^[ [53], [54] ^] Mice (wild‐type: C57BL/6, male, 6‐month‐old; AD transgenic: 5xFAD, male, 6‐month‐old, n = 4 for each group) were anesthetized with inhalational isoflurane (Patterson Vet Supply, Inc., Greeley, CO, USA) at 2.0% in a carrier of 2 L min^−1 medical oxygen, and maintained at 1.0% isoflurane during the imaging scan. Mice were injected with radiotracer (200 µL) via lateral tail vein catheterization at the start of the dynamic PET scan (Gamma Medica, Northridge, CA, USA). For blocking studies, the blocking agent was administered via the tail vein 5 min before radiotracer injection. Dynamic PET acquisition lasted 60 min and was followed by computed tomography (CT) for anatomic co‐registration. […] Reconstructed images were exported from the scanner in DICOM format and were analyzed using PMOD (PMOD 4.01).
# σ2R [2] = system: σ2R; parameters: method as in PMID 26384292; conditions: selectivity ratio; cited from earlier work
# [3] = molecular target: emopamil binding protein (EBP); parameters: method as in PMID 11377189; conditions: off-target affinity; cited from earlier work
# [4] = molecular target: vesicular acetylcholine transporter (VAChT); conditions: off-target affinity; literature value, no reference given; cited from earlier work
# σ1R [5] = conditions: cited from earlier work
# σ1R [6] = system: σ1R; parameters: method as in PMID 28572487; conditions: human brain, three-hour imaging period; cited from earlier work
# σ2R [7] = system: σ2R; parameters: method as in PMID 25420090; conditions: selectivity ratio, previous work; cited from earlier work
# [8] = system: non-target receptors or ion channels; parameters: method as in PMID 25420090; conditions: cited from earlier work
# [9] = parameters: method as in PMID 25420090; conditions: cited from earlier work
# σ1R [10] = system: σ1R; parameters: method as in PMID 25420090; conditions: rodent acute and neuropathic pain models; cited from earlier work
compound,measurement,setting,value
Cc1nc(-c2ccc(Cl)cc2)nc(OCCCN2CCN([11CH3])CC2)c1Cl [[^11C]CNY-02],maximum standard uptake value (SUV) in the brain,"σ1R [1]; male C57BL/6 mice, baseline PET/CT",0.7
same,"blocking effect, brain uptake normalized to maximum radioactivity in the blood",σ1R [1]; pre-treated with 1.0 mg kg^−1 of the corresponding unlabeled ligand,does not show a significant blocking effect
COc1cc(CCN2CCN(CCCc3ccccc3)CC2)ccc1O[11CH3] [[^11C]SA4503],σ2R/σ1R,σ2R [2],13.3–55.0
same,Ki,[3],1.7 nM
same,Ki,[4],50 nM
O=c1sc2cc(CCC[18F])ccc2n1CCN1CCCCCC1 [[^18F]FTC-146],Ki,σ1R [5],0.0025 nM
same,brain clearance,σ1R [6],unexpectedly slow brain clearance
"Cc1nc(-c2ccc(Cl)cc2)nc(OCCCN2CCCCC2)c1Cl [Lan-0101, 5‐chloro‐2‐(4‐chlorophenyl)‐4‐methyl‐6‐(3‐(piperidin‐1‐yl)propoxy)pyrimidine]",σ2R/σ1R,σ2R [7],1344
same,binding affinities to non-target receptors or ion channels,[8],no significant binding affinities
same,brain penetration,[9],good brain penetration
same,antinociceptive effects,σ1R [10],dose‐dependent antinociceptive effects
